Experimental data: paper PMC5944028, “Nonclinical and clinical pharmacological characterization of the potent and selective cathepsin K inhibitor MIV-711” (Journal of Translational Medicine, 2018)

Assays:
human cathepsin V = target: T1, human cathepsin V (Homo sapiens, UniProt O60911); assay: Enzyme assay, human cathepsin V; type: biochemical
T1 construct: purchased R & D Systems
Text: (§1) Recombinant cathepsin K enzymes from all species were expressed in E. coli, purified and activated. Human cathepsin F and cathepsin S were expressed in Baculovirus, purified and activated. Purified human cathepsins B and H (Athens Research Technology), cathepsin L (Calbiochem), and cathepsin V (R & D Systems) were purchased.
(§2) H-D-Ala_Leu-Lys-AMC was used as the substrate in assays of cathepsin K from non-rodent species (human, dog, rabbit and guinea pig), and Z-Leu-Arg-AMC was used as the substrate in assays of cathepsin K from rodent species (mouse and rat). […]
(§3) Assays were carried out in white polystyrene 96-well plates in a final volume of 100 µL. […] Plates were read in a Fluoroskan Ascent (Thermo Labsystems, Helsinki, Finland) in kinetic mode, with excitation and emission filters of 390 and 460 nm, respectively. Rates were determined by linear regression of the fluorescence/time data in Excel. Rates were fitted by non-linear regression to either the competitive inhibition equation, with the substrate concentration fixed at the value in the assay and the KM fixed to the value previously determined, or the IC50 equation using GraphPad Prism (GraphPad, version 6, San Diego, USA) to obtain Ki or IC50 values, respectively.

plasma CTX-I = assay: Monkey plasma CTX-I, repeat oral doses; type: in vivo, cynomolgus monkeys (Macaca fascicularis)
Description: Repeat dosing experiments were performed in four male monkeys from the group outlined above (Covance). Vehicle or MIV-711 (30 µmol/kg) was given via oral gavage once daily for 5 days between 7:30 and 8:30 a.m. Plasma for CTX-I measurements was collected on Day 1 at baseline, 1, 2, 4, 8 and 12 h after dose, on Days 2, 3 and 4 early in the morning before next dose (i.e. at trough), and on Day 5 at trough, 1, 2, 4, 8, 12 and 24 h after dose. [drawing 2]
The quantification of CTX-I in monkey plasma samples and human serum samples was performed using a commercially available kit (Serum CrossLaps ELISA, IDS Nordic, Herlev, Denmark). The levels of CTX-I in monkey urine samples were measured using a commercially available kit (Urine BETA CrossLaps ELISA, IDS Nordic). The quantification of NTX-I in monkey samples was performed using a commercially available kit (Osteomark NTx Urine, Wampole Laboratories, Inc, Princeton, USA). Urinary levels of CTX-II in monkey samples were measured using a commercially available kit (Urine CrossLaps EIA, IDS Nordic). The concentrations of biomarkers in the urine samples were corrected for creatinine concentrations. The creatinine levels in urine were determined at Swedish University of Agricultural Sciences, using the enzymatic assay (cat no. 8L24-01) on the Abbott system Architect c4000.

human cathepsin L = target: T2, human cathepsin L (Homo sapiens, UniProt P07711); assay: Enzyme assay, human cathepsin L; type: biochemical; conditions: geometric mean
T2 construct: purchased Calbiochem
Text: as §1, §2, §3

[1] = tested on: > 70 different ion channels, receptors, transporters and CYP enzymes; assay: PanLabs broad panel; conditions: 10 µmol/L
Description: MIV-711 was analyzed against > 70 different ion channels, receptors, transporters and cytochrome P450 (CYP) enzymes at a concentration of 10 µmol/L at PanLabs (Taipei, Taiwan).

pKa = type: physicochemical
rabbit cathepsin K = target: T3, rabbit cathepsin K (Oryctolagus cuniculus, UniProt P43236); assay: Recombinant enzyme assay, rabbit cathepsin K; type: biochemical; conditions: footnote a: IC50
T3 construct: made in house; host or cells: E. coli
Text: as §1, §2, §3

[2] = tested on: differentiated human osteoclasts; design: method as in PMID 20097319; conditions: bovine bone slices; read-out: IC50 in bone resorption assay; cited from earlier work
urine NTX-I = assay: Monkey urine NTX-I, multiple doses; type: in vivo, cynomolgus monkeys (Macaca fascicularis)
Description: (§4) Biomarkers such as NTX-I (bone resorption) and CTX-II (cartilage degradation) are typically measured in urine. Additional experiments in which urine was collected were therefore performed. In these experiments, four cynomolgus monkeys (Macaca fascicularis) were used (Aptuit, Edinburgh, UK). The animals were healthy young females weighing 3.5–4 kg. Animals were dosed with vehicle or MIV-711 via oral gavage at a dose volume of 5 mL/kg between 7:30 and 8:30 a.m. Animals first received vehicle via oral gavage for five consecutive days. After a washout period, the animals then received MIV-711 (30 µmol/kg) via oral gavage for five consecutive days.
(§5) Urine was collected between 8–12 a.m., 12 a.m.–4 p.m. and 4 p.m.–8 a.m. on Day 1 and Day 5 of respective treatment. Biomarkers were measured in each urine sample, corrected for creatinine, and the mean value of the three samples on Day 1 and Day 5 was calculated. The effect of MIV-711 was evaluated by comparing biomarkers in urine samples collected on Day 1 and Day 5 with respective vehicle sample. [drawing 3]
(§6) The quantification of CTX-I in monkey plasma samples and human serum samples was performed using a commercially available kit (Serum CrossLaps ELISA, IDS Nordic, Herlev, Denmark). The levels of CTX-I in monkey urine samples were measured using a commercially available kit (Urine BETA CrossLaps ELISA, IDS Nordic). […]

urine CTX-II = assay: Monkey urine CTX-II, multiple doses; type: in vivo, cynomolgus monkeys (Macaca fascicularis)
Description: as §4, §5, §6

mouse cathepsin K = target: T4, mouse cathepsin K (Mus musculus, UniProt P55097); assay: Recombinant enzyme assay, mouse cathepsin K; type: biochemical; conditions: footnote a: IC50
T4 construct: made in house; host or cells: E. coli
Text: as §1, §2, §3

urine CTX-I = assay: Monkey urine CTX-I, multiple doses; type: in vivo, cynomolgus monkeys (Macaca fascicularis)
Description: as §4, §5, §6

guinea pig cathepsin K = assay: Recombinant enzyme assay, guinea pig cathepsin K; type: biochemical; conditions: geometric mean
Text: as §1, §2, §3

[3] = 30 µmol/kg p.o. once daily, Day 5
[4] = 30 µmol/kg p.o. once daily for 5 days, creatinine-corrected
[5] = single dose 30 µmol/kg p.o. (Day 1)

T1 sequence (O60911 114-334): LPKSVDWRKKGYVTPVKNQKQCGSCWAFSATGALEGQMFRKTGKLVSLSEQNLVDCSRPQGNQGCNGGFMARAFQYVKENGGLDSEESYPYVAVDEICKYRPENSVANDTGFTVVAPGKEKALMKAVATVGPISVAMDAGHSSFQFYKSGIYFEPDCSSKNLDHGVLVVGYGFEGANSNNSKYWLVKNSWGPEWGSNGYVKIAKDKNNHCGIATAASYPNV
T4 sequence (P55097 115-329): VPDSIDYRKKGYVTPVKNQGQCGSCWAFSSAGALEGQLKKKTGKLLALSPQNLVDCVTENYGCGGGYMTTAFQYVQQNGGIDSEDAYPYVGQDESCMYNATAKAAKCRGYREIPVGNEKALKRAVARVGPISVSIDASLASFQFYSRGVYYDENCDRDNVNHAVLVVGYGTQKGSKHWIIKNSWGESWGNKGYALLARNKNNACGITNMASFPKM
T3 sequence (P43236 115-329): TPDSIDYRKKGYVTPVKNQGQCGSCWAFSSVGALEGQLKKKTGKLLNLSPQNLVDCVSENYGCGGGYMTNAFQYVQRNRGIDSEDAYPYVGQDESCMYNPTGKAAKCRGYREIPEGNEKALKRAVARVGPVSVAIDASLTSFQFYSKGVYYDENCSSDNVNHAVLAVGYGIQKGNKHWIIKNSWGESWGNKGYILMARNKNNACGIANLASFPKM
T2 sequence (P07711 114-333): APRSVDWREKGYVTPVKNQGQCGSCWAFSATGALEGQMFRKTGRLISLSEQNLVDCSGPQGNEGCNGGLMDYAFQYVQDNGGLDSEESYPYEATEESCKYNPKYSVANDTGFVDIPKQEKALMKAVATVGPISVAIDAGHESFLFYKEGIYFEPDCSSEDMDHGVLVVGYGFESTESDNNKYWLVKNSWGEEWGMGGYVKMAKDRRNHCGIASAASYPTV

C#C[C@@H]1CN(C(=O)[C@H](CC(C)C)NC(=O)c2ccc(-c3nc(N4CCN(C)CC4)sc3F)cc2)[C@@H]2C(=O)CO[C@H]12 [MIV-711]
Ki (human cathepsin V): 4000 nM | Maximum reduction of plasma CTX-I from baseline (plasma CTX-I; 30 µmol/kg p.o. once daily, Day 1, 12 h post dose): 76% | Maximal reduction of plasma CTX-I vs initial baseline (plasma CTX-I; [3]): 67% | Trough plasma CTX-I lower than baseline (plasma CTX-I; [3]): 38% | Trough plasma CTX-I lower than baseline (plasma CTX-I; 30 µmol/kg p.o., after the first dose on Day 1): 48% | Ki (human cathepsin L): 1700 nM | Responses (more than 50% inhibition) in broad panel [1]: No significant responses | pKa (pKa): 7.15 | IC50 (rabbit cathepsin K): 3.3 nM | IC50 [2]: 37 nM | Reduction of urinary NTX-I compared to vehicle (urine NTX-I; [4]): 71% | Effect on urinary NTX-I compared to vehicle (urine NTX-I; [5]): immediately reduced | Reduction of urinary CTX-II compared to vehicle (urine CTX-II; [4]): 71% | Effect on urinary CTX-II compared to vehicle (urine CTX-II; [5]): unaffected | IC50 (mouse cathepsin K): 1000 nM | Reduction of urinary CTX-I compared to vehicle (urine CTX-I; [4]): 93% | Effect on urinary CTX-I compared to vehicle (urine CTX-I; [5]): immediately reduced | Ki (guinea pig cathepsin K): 9.8 nM
